Data taken from US20250032430A1, “USES OF RHODOQUINONE FOR THE TREATMENT OF DISEASE” (Whitehead Institute for Biomedical Research, priority 2021, published 2025).

Key:
[1] = test system: kidney derived cancer cell line; assay: Western blot of kidney derived cancer cell line cultured in hypoxia (NRF2, PDH phosphorylation); format: cell-based; details: hypoxia for 5 days
Protocol: This includes NRF2 accumulation, which is a sensor of oxidative stress, and phosphorylation on PDH, which is a marker of AMPK activation. AMPK senses AMP, and is hyperactive when cells have “low energy”
Western Blots: Adherent cells were lysed in RIPA buffer (150 mM NaCl, 50 mM Tris-HCl, pH 7.5, 0.1% SDS, 1% Triton-X 100 (Sigma), 0.5% deoxycholate (Sigma), complete EDTA-free protease inhibitor (Sigma)) and clarified by centrifugation. Protein content was quantified using a Pierce BCA Protein Assay Kit (Life Technologies) and 30-50 μg protein were loaded on 12% Tris-Glycine Novex Gels (Invitrogen). Proteins were subsequently transferred to a 0.45 μm PVDF membrane (Sigma). Primary antibodies were used at the following dilutions in 5% BSA:SDHA (Proteintech; 1:1000), NDUFV1 (Abcam; 1:1000), Total OXPHOS Rodent WB Antibody Cocktail-containing UQCRC2, SDHB, and ATP5A (Abcam; 1:1000), COX IV (Cell Signaling Technology; 1:1000), MT-ND5 (Abcam; 1:1000), FLAG (Sigma; 1:1000), HIF1a (Cell Signaling Technology; 1:1000), ATP citrate lyase (Abcam; 1:1000), Citrate Synthase (Cell Signaling; 1:1000). Secondary antibodies were used at the following dilutions in 5% Milk:Anti-rabbit IgG HRP-linked Antibody (1:5000, Cell Signaling Technology), Anti-mouse IgG HRP-linked Antibody (1:5000, Cell Signaling Technology). […]

[2] = test system: complex 1 and DHODH; assay: Proliferation of WT and RquA cells in media without pyruvate or uridine; format: cell-based; details: media − pyruvate, − uridine
Description: Proliferation of WT and RquA cells in media that forces cells to use maximal complex 1 activity (− pyruvate) and maximal DHODH activity (− uridine). Complex 1 and DHODH are enzymes in the ETC that require an electron carrier (classically UQ) to catalyze their function. […] Rotenone was used as a control and inhibits complex 1 activity. Brequinar was used as a control and inhibits DHODH activity.

[3] = test system: 143B cells; assay: Polar metabolite profiling (succinate level); format: cell-based, human; details: 500 nM antimycin 8 hours
Protocol: Isolation of metabolites from adherent cells: To isolate metabolites, media was removed, cells were washed 2 times with ice cold 1×PBS, and wells were covered in LC-MS grade 80:20 Methanol:Water (ThermoFisher). Plates were scraped on dry ice and lysates were collected into eppendorf tubes. Lysates were vortexed for 10 minutes at 4° C. and centrifuged at 16,000×g for 10 minutes at 4° C. Supernatants were immediately dried down in a Refrigerated CentriVap Benchtop Vacuum Concentrator connected to a CentriVap-105 Cold Trap (Labconco). Dried pellets were stored at −80° C. until they were run on LC-MS.
Liquid Chromatography and Mass Spectrometry (polar): A QExactive bench top orbitrap mass spectrometer equipped with an Ion Max source and a HESI II probe coupled to a Dionex UltiMate 3000 HPLC system (Thermo Fisher Scientific) was used to perform all LC-MS experiments. The instrument underwent mass calibration using the standard calibration mixture every 7 days. 2 μL of re-suspended polar metabolite samples were injected onto a SeQuant ZIC-pHILIC 5 μm 150×2.1 mm analytical column equipped with a 2.1×20 mm guard column (MilliporeSigma). The column oven was held at 25° C. and the autosampler tray was held at 4° C. Buffer A was comprised of 20 mM ammonium carbonate, 0.1% ammonium hydroxide. Buffer B was comprised of 100% acetonitrile. […]

[4] = test system: SW1353, U87, DLD1, HCT116, C2C12, primary dermal fibroblasts, Mink lung epithelial cells; assay: Fumarate reduction in a panel of other cell lines; format: cell-based; details: other human cancer cell lines
Protocol: Stable isotope tracing in cells: Cells were seeded 24 hours prior to the experiment in 6-well dishes at 70% density. For stable isotope tracing of glutamine, glutamine-free DMEM (ThermoFisher) was supplemented with 2 mM ^13C5^15N2-glutamine (Sigma), 1 mM pyruvate, 5% FBS, 1% P/S, 0.1 mg/mL uridine. For stable isotope tracing of aspartate, DMEM containing 5% FBS, and 1% penicillin and streptomycin, and 0.1 mg/mL uridine (Sigma) was supplemented with the designated amount of 13C4-aspartate (Sigma) and the pH adjusted to 7.4. Uridine was left out of the media for stable isotope tracing experiments measuring nucleotide biosynthesis. Unless otherwise stated, for all experiments, cells were treated for 8 hours and metabolites were isolated as described below. Relevant compounds were added at the start of the incubation periods.

[5] = test system: liver, kidney, heart, and skeletal muscle; assay: Ex vivo O2 consumption of mouse tissues
Protocol: Oxygen Consumption Rate (Seahorse): Respiration was measured on intact 143B cells and on mitochondria purified from tissue on the Seahorse XFe-96 Analyzer (Seahorse Bioscience). Cells were incubated in a non-CO2 37° C. incubator in serum-free Seahorse XF RPMI Media (Seahorse Bioscience, Catalog #103336) supplemented with 5 mM glucose, 2 mM glutamine, and 1 mM pyruvate. Oxygen consumption rate (OCR) was measured over a period of 30 minutes. Oxygen consumption rate was also measured on mitochondria purified from mouse tissues. Mitochondria were incubated in MAS buffer (70 mM sucrose, 220 mM mannitol, 10 mM KH2PO4, 5 mM MgCl2, 2 mM HEPES pH 7.2, 1 mM EGTA, 2% BSA) supplemented with 2 mM ADP, 5 mM glutamate, 5 mM malate, 5 mM pyruvate, and 2.5 mM succinate. Oxygen consumption rate (OCR) was measured over a period of 30 minutes.

In the case of rhodoquinone, the “oxidative and bioenergetic stresses (NRF2 accumulation, phosphorylation on PDH)” value [1] is reported as “protects against oxidative and bioenergetic stresses” and the “support of complex 1 and DHODH activities (proliferation)” value [2] is reported as “can carry electrons in the ETC and support complex 1 and DHODH activities”.

With antimycin the succinate level [3] was “increase”, the fumarate reduction [4] was “increased” and the O2 consumption [5] was “ablated”.
